From ChEMBL document CHEMBL1139656, “Aminoalkyl phenyl sulfones--a novel series of 5-HT7 receptor ligands” (Bioorg Med Chem Lett, 2006)

Assays:
[1] = biological target: 5-hydroxytryptamine receptor 1B (Homo sapiens, UniProt P28222); experiment: Displacement of [3H]5-HT from the cloned human 5-HT1B receptor expressed in CHO cells; assay type: cell-based
D(2) dopamine receptor = D(2) dopamine receptor (Homo sapiens, UniProt P14416); experiment: Displacement of [3H]spiperone from the cloned human D2 receptor expressed in CHO cells; assay type: cell-based
[2] = biological target: 5-hydroxytryptamine receptor 2A (Homo sapiens, UniProt P28223); experiment: Displacement of [3H]ketanserin from the cloned human 5-HT2A receptor expressed in CHO cells; assay type: cell-based
[3] = biological target: T1, 5-hydroxytryptamine receptor 7 (Homo sapiens, UniProt P34969); experiment: Displacement of [3H]5-HT from the cloned human 5-HT7 receptor expressed in CHO cells; assay type: cell-based
[4] = biological target: T2, 5-hydroxytryptamine receptor 1A (Homo sapiens, UniProt P08908); experiment: Displacement of [3H]5-HT from the cloned human 5-HT1A receptor expressed in HeLa cells; assay type: cell-based
T2 sequence (P08908 whole entry): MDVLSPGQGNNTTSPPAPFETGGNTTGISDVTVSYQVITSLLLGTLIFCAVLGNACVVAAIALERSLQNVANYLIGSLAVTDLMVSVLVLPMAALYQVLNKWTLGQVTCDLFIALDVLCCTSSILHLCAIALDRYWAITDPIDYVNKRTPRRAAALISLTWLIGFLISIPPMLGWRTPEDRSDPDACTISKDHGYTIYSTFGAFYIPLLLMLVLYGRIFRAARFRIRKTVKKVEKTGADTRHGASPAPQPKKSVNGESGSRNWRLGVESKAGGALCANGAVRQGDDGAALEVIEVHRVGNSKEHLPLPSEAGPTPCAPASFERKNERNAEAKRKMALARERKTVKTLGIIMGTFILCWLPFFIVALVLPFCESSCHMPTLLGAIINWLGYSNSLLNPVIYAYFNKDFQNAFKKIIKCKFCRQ

[5] = biological target: T3, Adrenergic receptor alpha-1 (Rattus norvegicus, UniProt P15823+P23944+P43140); experiment: Displacement of [3H]prazosin from alpha-1 adrenergic receptor in rat cortex
T3 sequence (P15823 whole entry): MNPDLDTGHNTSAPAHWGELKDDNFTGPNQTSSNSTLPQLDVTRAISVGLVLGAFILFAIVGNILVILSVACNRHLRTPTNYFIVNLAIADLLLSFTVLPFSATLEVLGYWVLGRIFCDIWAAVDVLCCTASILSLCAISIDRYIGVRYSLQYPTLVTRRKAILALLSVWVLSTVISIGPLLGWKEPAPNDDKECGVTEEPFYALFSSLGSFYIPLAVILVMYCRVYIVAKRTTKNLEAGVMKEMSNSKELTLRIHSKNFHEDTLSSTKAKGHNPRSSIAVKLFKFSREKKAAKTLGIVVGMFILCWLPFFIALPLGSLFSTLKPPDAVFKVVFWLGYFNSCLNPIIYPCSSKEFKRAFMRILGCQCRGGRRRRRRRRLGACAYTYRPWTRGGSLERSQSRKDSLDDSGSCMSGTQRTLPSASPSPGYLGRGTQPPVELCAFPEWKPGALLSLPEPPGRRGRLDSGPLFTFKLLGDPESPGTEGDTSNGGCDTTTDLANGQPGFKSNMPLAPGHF
T3 sequence (P23944 whole entry): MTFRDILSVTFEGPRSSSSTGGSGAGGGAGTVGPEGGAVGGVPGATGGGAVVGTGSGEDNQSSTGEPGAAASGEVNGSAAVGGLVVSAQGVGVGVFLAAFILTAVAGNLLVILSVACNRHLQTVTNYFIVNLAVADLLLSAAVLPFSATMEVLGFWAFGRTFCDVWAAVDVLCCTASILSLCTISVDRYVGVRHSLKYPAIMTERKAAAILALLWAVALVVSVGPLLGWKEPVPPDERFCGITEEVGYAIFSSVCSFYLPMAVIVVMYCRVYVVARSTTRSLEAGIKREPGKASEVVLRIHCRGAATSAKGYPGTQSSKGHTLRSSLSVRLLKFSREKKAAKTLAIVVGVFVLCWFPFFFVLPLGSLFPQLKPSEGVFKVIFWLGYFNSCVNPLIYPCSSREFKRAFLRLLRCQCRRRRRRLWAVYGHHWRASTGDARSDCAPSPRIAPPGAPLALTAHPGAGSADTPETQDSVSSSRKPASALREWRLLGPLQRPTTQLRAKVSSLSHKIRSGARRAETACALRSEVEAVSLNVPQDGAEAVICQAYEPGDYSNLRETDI
T3 sequence (P43140 whole entry): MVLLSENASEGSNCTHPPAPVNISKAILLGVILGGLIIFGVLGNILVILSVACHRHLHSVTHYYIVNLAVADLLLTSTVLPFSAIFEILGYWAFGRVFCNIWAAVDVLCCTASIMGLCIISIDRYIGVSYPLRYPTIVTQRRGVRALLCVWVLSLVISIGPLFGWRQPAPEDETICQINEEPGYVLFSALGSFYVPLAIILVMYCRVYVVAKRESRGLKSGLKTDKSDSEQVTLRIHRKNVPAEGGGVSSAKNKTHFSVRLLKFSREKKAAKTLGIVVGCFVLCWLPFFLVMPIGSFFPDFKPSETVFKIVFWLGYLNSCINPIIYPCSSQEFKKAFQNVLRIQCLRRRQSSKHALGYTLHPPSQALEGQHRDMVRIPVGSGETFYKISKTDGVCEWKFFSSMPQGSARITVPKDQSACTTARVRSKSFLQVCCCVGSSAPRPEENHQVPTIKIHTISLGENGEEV

[6] = biological target: T1, 5-hydroxytryptamine receptor 7; experiment: Activity towards human 5-HT7 receptor at 10 uM relative to 5-CT; assay type: functional
[7] = biological target: Voltage-gated inwardly rectifying potassium channel KCNH2 (Homo sapiens, UniProt Q12809); experiment: Displacement of [35S]-labeled MK-499 from cloned human ERG receptor expressed in HEK cells; assay type: cell-based, HEK293
Voltage-gated inwardly rectifying potassium channel KCNH2, sequence (Q12809 whole entry): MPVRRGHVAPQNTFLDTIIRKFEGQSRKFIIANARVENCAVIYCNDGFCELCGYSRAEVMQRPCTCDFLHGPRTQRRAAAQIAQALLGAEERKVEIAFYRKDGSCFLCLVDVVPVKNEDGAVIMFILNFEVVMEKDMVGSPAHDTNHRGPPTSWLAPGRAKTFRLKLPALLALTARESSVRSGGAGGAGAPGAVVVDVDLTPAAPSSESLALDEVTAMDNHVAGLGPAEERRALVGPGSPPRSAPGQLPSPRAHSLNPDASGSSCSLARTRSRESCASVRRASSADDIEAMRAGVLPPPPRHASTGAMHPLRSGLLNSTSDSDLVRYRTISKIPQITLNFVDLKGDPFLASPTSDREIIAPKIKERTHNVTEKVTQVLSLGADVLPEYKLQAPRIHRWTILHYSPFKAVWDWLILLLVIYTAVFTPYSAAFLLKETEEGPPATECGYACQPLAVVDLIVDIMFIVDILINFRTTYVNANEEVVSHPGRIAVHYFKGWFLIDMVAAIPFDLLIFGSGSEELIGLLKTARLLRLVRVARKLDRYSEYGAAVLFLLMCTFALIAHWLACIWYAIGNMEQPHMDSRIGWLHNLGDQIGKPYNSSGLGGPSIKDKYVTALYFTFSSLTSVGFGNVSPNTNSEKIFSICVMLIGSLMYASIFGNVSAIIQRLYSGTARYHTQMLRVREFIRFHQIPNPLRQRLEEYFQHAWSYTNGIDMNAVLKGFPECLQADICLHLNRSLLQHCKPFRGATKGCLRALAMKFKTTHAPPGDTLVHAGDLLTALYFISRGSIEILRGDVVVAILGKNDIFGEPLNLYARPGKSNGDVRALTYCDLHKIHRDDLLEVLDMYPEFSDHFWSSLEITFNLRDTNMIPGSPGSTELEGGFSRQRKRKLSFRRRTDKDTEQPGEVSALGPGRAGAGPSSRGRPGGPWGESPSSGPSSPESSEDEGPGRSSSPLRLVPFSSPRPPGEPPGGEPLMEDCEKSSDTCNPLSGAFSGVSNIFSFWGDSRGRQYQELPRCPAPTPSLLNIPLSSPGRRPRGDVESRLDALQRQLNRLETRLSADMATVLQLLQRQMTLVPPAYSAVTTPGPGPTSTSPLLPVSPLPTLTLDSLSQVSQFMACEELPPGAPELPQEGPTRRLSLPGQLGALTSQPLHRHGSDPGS

D(2) dopamine receptor, sequence (P14416 whole entry): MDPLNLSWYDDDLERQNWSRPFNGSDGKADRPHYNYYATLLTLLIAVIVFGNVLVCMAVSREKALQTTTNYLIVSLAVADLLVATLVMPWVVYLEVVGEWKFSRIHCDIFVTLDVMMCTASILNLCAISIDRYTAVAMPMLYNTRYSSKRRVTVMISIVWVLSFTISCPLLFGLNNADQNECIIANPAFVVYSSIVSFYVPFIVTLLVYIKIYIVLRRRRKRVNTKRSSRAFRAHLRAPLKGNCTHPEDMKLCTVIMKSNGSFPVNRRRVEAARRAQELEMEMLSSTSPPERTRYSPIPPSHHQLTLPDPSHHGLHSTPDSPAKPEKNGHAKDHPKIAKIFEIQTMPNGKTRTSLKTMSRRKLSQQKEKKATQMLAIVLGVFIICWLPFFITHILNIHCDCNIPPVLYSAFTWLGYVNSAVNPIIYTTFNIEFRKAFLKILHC
T1 sequence (P34969 whole entry): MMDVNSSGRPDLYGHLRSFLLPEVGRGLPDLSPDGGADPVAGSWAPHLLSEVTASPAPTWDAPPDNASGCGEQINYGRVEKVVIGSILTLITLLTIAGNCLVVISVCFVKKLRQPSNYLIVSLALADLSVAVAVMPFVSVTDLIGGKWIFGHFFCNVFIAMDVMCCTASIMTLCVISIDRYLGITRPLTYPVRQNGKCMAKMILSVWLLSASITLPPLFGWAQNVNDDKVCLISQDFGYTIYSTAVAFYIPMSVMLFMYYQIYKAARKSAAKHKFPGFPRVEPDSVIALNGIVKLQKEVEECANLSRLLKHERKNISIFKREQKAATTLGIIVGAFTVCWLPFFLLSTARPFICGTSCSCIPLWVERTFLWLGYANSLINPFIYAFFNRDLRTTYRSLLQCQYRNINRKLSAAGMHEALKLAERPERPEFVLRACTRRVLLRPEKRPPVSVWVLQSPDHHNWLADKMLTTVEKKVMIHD
5-hydroxytryptamine receptor 1B, sequence (P28222 whole entry): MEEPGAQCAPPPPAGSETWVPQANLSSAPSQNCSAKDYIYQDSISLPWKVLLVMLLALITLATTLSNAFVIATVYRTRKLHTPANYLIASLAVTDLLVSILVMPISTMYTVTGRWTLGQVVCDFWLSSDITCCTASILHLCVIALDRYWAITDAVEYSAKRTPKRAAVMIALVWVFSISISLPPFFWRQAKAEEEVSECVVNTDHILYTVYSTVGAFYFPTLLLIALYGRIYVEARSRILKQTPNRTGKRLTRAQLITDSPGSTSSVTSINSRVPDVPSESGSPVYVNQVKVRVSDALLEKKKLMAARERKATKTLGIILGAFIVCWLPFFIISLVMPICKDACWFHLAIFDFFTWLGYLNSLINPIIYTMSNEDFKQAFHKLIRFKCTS
5-hydroxytryptamine receptor 2A, sequence (P28223 whole entry): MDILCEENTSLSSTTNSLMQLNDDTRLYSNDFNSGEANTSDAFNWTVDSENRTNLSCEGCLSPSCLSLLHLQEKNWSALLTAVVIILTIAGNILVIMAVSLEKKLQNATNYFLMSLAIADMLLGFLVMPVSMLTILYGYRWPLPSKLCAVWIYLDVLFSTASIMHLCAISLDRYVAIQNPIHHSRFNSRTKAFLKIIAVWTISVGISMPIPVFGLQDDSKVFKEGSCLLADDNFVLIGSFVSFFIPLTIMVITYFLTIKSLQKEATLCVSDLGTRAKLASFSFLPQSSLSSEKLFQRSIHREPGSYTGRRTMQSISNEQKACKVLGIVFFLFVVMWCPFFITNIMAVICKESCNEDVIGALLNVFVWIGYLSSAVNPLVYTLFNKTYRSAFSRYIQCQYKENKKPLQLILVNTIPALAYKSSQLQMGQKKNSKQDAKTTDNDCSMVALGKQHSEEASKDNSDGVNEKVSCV

Row | Compound | Ki [1] [nM] | Ki (D(2) dopamine receptor) [nM] | Ki [2] [nM] | Ki [3] [nM] | Ki [4] [nM] | Ki [5] [nM⁻¹] | Activity [6] [%] | Ki [7] [nM]
1 | CCOC(=O)[C@@H]1CCCN(CCCC(C)(C)S(=O)(=O)c2ccccc2)C1 | > 7000 | 710 | 1870 | 24 | 2400 | > 4000 | 0 | 
2 | O=S(=O)(CCCCN1CCC2CCCCC2C1)c1ccccc1 (racemic) |  |  |  | 96 |  |  |  | 
3 | O=S(=O)(c1ccccc1)C1(CCCN2CCOCC2)CCC1 |  |  |  | > 7000 |  |  |  | 
4 | CC1CCN(CCCC2(S(=O)(=O)c3ccccc3)CCC2)CC1 |  |  |  | 550 |  |  |  | 
5 | CN1CCN(CCCC2(S(=O)(=O)c3ccccc3)CCC2)CC1 |  |  |  | 5800 |  |  |  | 
6 | O=S(=O)(c1ccccc1)C1(CCCN2CCCCC2)CCC1 |  |  |  | 2700 |  |  |  | 
7 | O=S(=O)(c1ccccc1)C1(CCCN2CCC(c3ccccc3)CC2)CCC1 |  |  |  | 26 |  |  |  | 
8 | O=S(=O)(c1ccccc1)C1(CCN2CCC(c3ccccc3)C2)CCC1 (racemic) |  |  |  | 53 |  |  |  | 
9 | CN(C)CCCC1(S(=O)(=O)c2ccccc2)CCC1 |  |  |  | > 7000 |  |  |  | 
10 | CC(C)(CCCN1CCCC(C(F)(F)F)C1)S(=O)(=O)c1ccccc1 (racemic) | > 7000 | > 1000 | > 2000 | 54 | > 7000 | > 4000 | 0 | > 5000
11 | CCOC(=O)[C@H]1CCCN(CCCC(C)(C)S(=O)(=O)c2ccccc2)C1 |  |  |  | 455 |  |  |  | 

Now those with a lower Ki [3], led by results:

Row | Ki [1] [nM] | Ki (D(2) dopamine receptor) [nM] | Ki [2] [nM] | Ki [3] [nM] | Ki [4] [nM] | Ki [5] [nM⁻¹] | Activity [6] [%] | Compound | Ki [7] [nM]
12 |  |  |  | 13 |  |  |  | O=S(=O)(c1ccccc1)C1(CCCCN2CCC(c3ccccc3)C2)CCC1 (racemic) | 
13 | 7700 | 220 | 1800 | 7 | 400 | 540 | 0 | CC(C)(CCCN1CCCC(c2ccccc2)C1)S(=O)(=O)c1ccccc1 (racemic) | > 5000
14 |  |  | 65 | 8 | 35 |  | 5 | O=S(=O)(c1ccccc1)C1(CCCN2CCc3ccccc3C2)CCC1 | 
15 |  |  |  | 9 |  |  |  | O=S(=O)(c1ccccc1)C1(CCCN2CCC(c3ccccc3)C2)CCC1 (racemic) | 
16 |  |  |  | 22 |  |  |  | O=S(=O)(c1ccccc1)C1(CCCN2CCN(c3ccccc3)CC2)CCC1 | 
17 |  |  | 570 | 6 | 210 |  | 39 | O=S(=O)(c1ccccc1)C1(CCCN2CCC3CCCCC3C2)CCC1 (racemic) | 
18 | > 5000 | 1500 | > 1000 | 15 | > 7000 | > 4000 | 12 | CC(C)(CCCN1CCCC(c2cnco2)C1)S(=O)(=O)c1ccccc1 (racemic) | > 8000
19 | > 7000 | 900 | 2000 | 8 | 1500 | 3900 | 83 | CC(C)(CCCN1CC[C@@H]2CCCC[C@H]2C1)S(=O)(=O)c1ccccc1 (racemic) | > 4000
